Assay results from US4962107A, “Agent for cerebral protection” (Kyowa Hakko Kogyo Kabushiki Kaisha, priority 1985, dated 1990).

How the values were obtained:
[1] = Test for acute toxicity (LD50, oral, 7 days); conditions: mouse, in vivo, mice, deaths within 7 days, 5 mice per group
Experimental: Mice (ddY strain; male; body weight 21-23 g) were used as test animals. Each group consisted of 5 mice. The test compound was orally administered to each mouse. During the test period of 7 days after the administration, the number of deaths in each group was counted to calculate the LD50. All animals were bred in a breeding room, maintained at a temperature of 23°±2° C. and a humidity of 55-60%. These animals were given a solid feed "F-2" (commercial product of Funabashi Nojo) and city water ad libitum.

[2] = test system: mice subjected to normobaric hypoxia; test: Effects on survival time of mice subjected to normobaric hypoxia; type: in vivo, mouse (ddY strain; male); conditions: 50 mg/kg oral, 2 h before; 96% nitrogen/4% oxygen; protected = alive 10 or more minutes
Experimental: Mice (ddY strain; male; body weight 20-22 g) were used as test animals. Each group consisted of 10 or more mice. A test compound (50 mg/kg) was orally administered to each mouse.
Then each animal was put into a glass cylinder (capacity: 700 ml) and a mixture of nitrogen (96%) and oxygen (4%) was passed through the cylinder at a velocity of 5 1 /min and expelled through a hole in the side wall. The time from the start of the gas mixture supply to the cessation of respiratory motion was measured, and animals which remained alive for 10 or more minutes were evaluated as "protected". Among 50 untreated animals, no animal remained alive. In use, the test compound was suspended in an aqueous solution of carboxymethylcellulose sodium (0.3%).

[3] = test system: mice subjected to hypobaric hypoxia; test: Effects on survival time of mice subjected to hypobaric hypoxia; type: in vivo, mouse (ddY strain; male); conditions: 30 mg/kg oral, 2 h before; 150 mmHg; mean ± S.E.; *P < 0.05, **P < 0.001 vs control
Experimental: Mice (ddY strain; male; body weight 20-22 g) were used as test animals. Each group consisted of 10 or more mice. A test compound (30 mg/kg) was orally administered to each mouse. Two hours after the administration, each animal was put into a desiccator (capacity: 9 l), and the inside pressure of the desiccator was reduced to 150 mmHg over a period of 52-55 seconds. The time from the start of the pressure reduction to the cessation of respiratory motion was measured. Survival time of the compound-administered group and that of the control group were compared by t-test.

[4] = test system: mice subjected to anaemic hypoxia; test: Effects on survival time of mice subjected to anaemic hypoxia (NaNO2); type: in vivo, mouse (ddY strain; male); conditions: 30 mg/kg oral, 2 h before; NaNO2 225 mg/kg s.c.; mean ± S.E.; *P < 0.05, **P < 0.001 vs control
Experimental: (Hypoxia induced by NaNO2 administration to convert haemoglobin to methemoglobin)
Mice (ddY strain; male; body weight 20-22 g) were used as test animals. Each group consisted of 10 or more mice. A test compound (30 mg/kg) was orally administered to each mouse. Two hours after the administration, NaNO2 (225 mg/kg) was subcutaneously administered to each mouse. The time from the NaNO2 administration to death was measured. Survival time of the compound-administered group and that of the control group were compared by t-test.

[5] = test system: decapitated heads of mice; test: Effect on time of gasping persistence by decapitated heads of mice; type: in vivo, mouse (ddY strain; male); conditions: 30 mg/kg oral, 2 h before decapitation; mean ± S.E.; **P < 0.001 vs control
Experimental: Mice (ddY strain; male; body weight 20-22 g) were used as test animals. Each group consisted of 10 or more mice. A test compound (30 mg/kg) was orally administered to each mouse. Two hours after the administration, each animal was decapitated, and the time from the decapitation to the cessation of gasping was measured. Time of gasping persistence of the treated group and that of the control group were compared by t-test.

[6] = test system: cerebral ischaemia or cerebral hypoxia; conditions: cited from literature; cited from earlier work
[7] = Acute toxicity (general statements, comparison with nizofenone); conditions: in vivo, po; per os; species and method not stated at this place
[8] = cited from literature / background; cited from earlier work

Row | Compound | LD50 at 168 h [1] [mg/kg] | A/B (number of animals surviving / number of animals tested) [2] | other results
1 | CC1CCCCN1C(=O)C=Cc1ccc(C(F)(F)F)cc1 (stereo not drawn) [Compound 1, 2-methyl-1-(4-trifluoromethylcinnamoyl) piperidine] | > 1010 | 10/10 | Survival Time [3]: 582.8 ± 12.1 s; Survival Time [4]: 64.9 ± 5.5 min; Persistence Time (gasping) [5]: 39.1 ± 1.4 s
2 | CC1COCCN1C(=O)C=Cc1ccc(C(F)(F)F)cc1 (stereo not drawn) [Compound 2, 3-methyl-4-(4-trifluoromethylcinnamoyl) morpholine] | 675 to 1010 | 8/10 | –
3 | CC1CCCCN1C(=O)C=Cc1ccc(Cl)cc1 (stereo not drawn) [Compound 3, 2-Methyl-1-(4-chlorocinnamoyl) piperidine] | > 1010 | 9/10 | Survival Time [3]: 172.4 ± 11.3 s; Survival Time [4]: 47.7 ± 5.5 min; Persistence Time (gasping) [5]: 30.2 ± 1.1 s
4 | CC1CCCCN1C(=O)C=Cc1ccc(F)cc1 (stereo not drawn) [Compound 4, 2-Methyl-1-(4-fluorocinnamoyl) piperidine] | > 1010 | 7/20 | Survival Time [3]: 126.3 ± 6.9 s; Survival Time [4]: 58.4 ± 5.5 min; Persistence Time (gasping) [5]: 23.5 ± 0.8 s
5 | CC1CCCC(C)N1C(=O)C=Cc1ccc(C(F)(F)F)cc1 (stereo not drawn) [Compound 5, 2,6-Dimethyl-1-(4-trifluoromethylcinnamoyl) piperidine] | > 1010 | 15/20 | –
6 | O=C(C=Cc1ccc(F)cc1)N1CCOCC1 [Compound 6, 4-(4-Fluorocinnamoyl) morpholine] | > 1010 | 2/10 | –
7 | O=C(C=Cc1ccc(C(F)(F)F)cc1)N1CCOCC1 [Compound 7, 4-(4-Trifluoromethylcinnamoyl) morpholine] | 300 to 450 | 4/10 | –
8 | CC1CCN(C(=O)C=Cc2ccc(C(F)(F)F)cc2)CC1 [Compound 8, 4-Methyl-1-(4-trifluoromethylcinnamoyl) piperidine] | > 1010 | 5/20 | –
9 | O=C(C=Cc1ccc(C(F)(F)F)cc1)N1CCCCC1CO (stereo not drawn) [Compound 9, 2-Hydroxymethyl-1-(4-trifluoromethylcinnamoyl) piperidine] | – | 2/10 | –
10 | O=C(C=Cc1ccc(C(F)(F)F)cc1)N1CCC(O)CC1 [Compound 10, 4-Hydroxy-1-(4-trifluoromethylcinnamoyl) piperidine] | – | 2/10 | –
11 | O=C(C=Cc1ccc(C(F)(F)F)cc1)N1CCSCC1 [Compound 11, 4-(4-Trifluoromethylcinnamoyl) thiomorpholine] | – | 7/10 | –
12 | O=C(C=Cc1ccc(C(F)(F)F)cc1)N1CC[S+]([O-])CC1 [Compound 12, 4-(4-trifluoromethylcinnamoyl) thiomorpholine-1-oxide] | – | 8/10 | –
13 | O=C(C=Cc1ccc(C(F)(F)F)cc1)N1CCS(=O)(=O)CC1 [Compound 13, 4-(4-trifluoromethylcinnamoyl) thiomorpholine-1,1-dioxide] | – | 6/10 | –
14 | O=C(C=Cc1ccc(Cl)cc1)N1CCCCC1 [Compound 14, 1(4-chlorocinnamoyl) piperidine] | > 1010 | 4/10 | –
15 | O=C(C=Cc1ccc(Cl)c(Cl)c1)N1CCOCC1 [Compound 15, 4(3,4-dichlorocinnamoyl) morpholine] | 450 to 675 | 5/10 | –
16 | O=C(C=Cc1ccc(Cl)cc1)N1CCOCC1 [Compound 16, 4(4-chlorocinnamoyl) morpholine] | 675 to 1010 | 5/10 | –
17 | CCC1(c2ccccc2)C(=O)NC(=O)N(C)C1=O (stereo not drawn) [mephobarbital] | – | – | cerebral protective effect (literature) [6]: have a cerebral protective activity
18 | CCN(CC)Cc1nccn1-c1ccc([N+](=O)[O-])cc1C(=O)c1ccccc1Cl.O=C(O)/C=C/C(=O)O [nizofenone, 1-[2-(2-chlorobenzoyl)-4-nitrophenyl]-2-(diethylaminomethyl)imidazole fumarate] | – | – | LD50 [7]: 450 to 675 mg/kg; cerebral protective effect (literature) [6]: has a cerebral protective effect against cerebral ischaemia or cerebral hypoxia, similar to that of barbiturates; anesthetic or respiration-suppressing action, side effects (literature) [8]: does not exhibit an anesthetic or respiration-suppressing action
19 | CCCC(C)C1(CC)C(=O)NC(=O)NC1=O (stereo not drawn) [pentobarbital] | – | – | cerebral protective effect (literature) [6]: have a cerebral protective activity
20 | CCCC(C)C1(CC)C(=O)NC(=S)NC1=O (stereo not drawn) [thiopental] | – | – | cerebral protective effect (literature) [6]: have a cerebral protective activity
